{"source": "patent US10316056B2", "about": "“Chemical compounds and use thereof for improving muscular quality” (BIOPHYTIS, priority 2014, dated 2019)", "origin": "cited, not measured here", "key": {"[1]": {"tested_on": "phosphorylations that activate proteins such as Akt or S6 kinase", "settings": "could reach; literature, Kazi et al., 2010; cited from earlier work"}, "[2]": {"tested_on": "muscle cells derived from the C2C12 murine line", "settings": "literature, Kazi et al., 2010; cited from earlier work"}}, "data": [{"substance": "IGF-1: reference product (100 ng/ml) that stimulates protein synthesis", "values": [{"measurement": "stimulation of targets of the signaling pathway", "setting": "[1]", "result": "about 200%"}, {"measurement": "increase in protein synthesis", "setting": "[2]", "result": 20, "unit": "%"}]}]}
